Results: patent publication US20250382303A1, “NOVEL COMPOUND AS NADPH OXIDASE 2 INHIBITOR AND PHARMACEUTICAL COMPOSITION CONTAINING SAME” (DONGGUK UNIVERSITY INDUSTRY-ACADEMIC COOPERATION FOUNDATION, priority 2022, published 2025)

Target: T1, NOX2 (Homo sapiens, UniProt P04839)
T1 construct: Used for the NOX2 activity assay was human leukemia 60 cells (HL-60), which are widely, universally used to assess NOX2 activity; endogenous in cells
T1 sequence (P04839 2-570 limits assumed): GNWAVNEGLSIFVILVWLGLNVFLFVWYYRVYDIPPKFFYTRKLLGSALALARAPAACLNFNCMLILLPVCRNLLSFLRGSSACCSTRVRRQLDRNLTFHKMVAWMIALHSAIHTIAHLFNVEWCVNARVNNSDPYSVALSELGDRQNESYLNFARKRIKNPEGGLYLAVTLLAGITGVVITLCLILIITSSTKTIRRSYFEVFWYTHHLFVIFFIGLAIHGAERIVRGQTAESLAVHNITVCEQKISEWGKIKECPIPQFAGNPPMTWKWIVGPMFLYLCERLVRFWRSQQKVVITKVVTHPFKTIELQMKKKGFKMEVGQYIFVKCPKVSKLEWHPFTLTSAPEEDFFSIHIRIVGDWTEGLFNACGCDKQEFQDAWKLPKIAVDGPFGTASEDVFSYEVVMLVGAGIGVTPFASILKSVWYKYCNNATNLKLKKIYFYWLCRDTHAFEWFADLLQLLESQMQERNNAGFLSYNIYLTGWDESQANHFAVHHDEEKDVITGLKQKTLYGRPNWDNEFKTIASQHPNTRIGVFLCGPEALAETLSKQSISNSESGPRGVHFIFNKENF
T1 sequence (P13498 2-195 partner limits assumed): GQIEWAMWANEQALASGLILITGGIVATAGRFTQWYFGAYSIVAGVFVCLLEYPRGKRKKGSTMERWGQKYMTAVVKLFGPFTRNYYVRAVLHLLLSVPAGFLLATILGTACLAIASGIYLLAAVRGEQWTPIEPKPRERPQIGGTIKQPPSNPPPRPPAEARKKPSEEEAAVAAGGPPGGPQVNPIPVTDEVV
Assay: NOX2 activity assay: PMA-induced ROS in ATRA-differentiated HL-60 cells (WST-1 or Amplex Red/HRP probe)
Type: cell-based
Settings: for IC50: WST-1 probe, differentiated HL-60, 200 ng/mL PMA, read-out: Inhibitory ability (NOX2); for NOX2 inhibitory ability, verbal rating: WST-1, comment on Table 1
Method: NOX activity was evaluated by measuring the reactive oxygen species (ROS) produced by NOX. The probes that were used to measure ROS were water soluble tetrazolium-1 (WST-1, superoxide-specific colorimetric probe) and Amplex Red/horseradish peroxidase (AR/HRP, hydrogen peroxide-specific fluorometric probe), and the concentration of the probes used was […]. For WST-1, the change in the absorbance at 450 nm was measured, and, for AR, the change in fluorescence signals was measured at 560 nm and 585 nm, respectively for excitation wavelength (Ex) and emission wavelength (Em). The optical signal was measured using the SpectraMax M3 microplate reader from Molecular Devices at 37° C. for 60 minutes.
Used for the NOX2 activity assay was human leukemia 60 cells (HL-60), which are widely, universally used to assess NOX2 activity. 1×10^5 cells/mL of HL-60 were treated with […] all-trans-retinoic acid (ATRA) for 4 days to induce differentiation. Differentiated HL-60 (diff. HL-60) was centrifuged at 200 g for 5 minutes and washed twice with HBSS. Differentiation was induced to reach 3×10^4 cells/well on a 96-well plate (diff). HL-60 was seeded. The test material was treated to cells and left in a 37° C. incubator for 60 minutes. As a control group, the same concentration of DMSO, which is the vehicle of the test material, was used. 200 ng/mL phorbol 12-myristate 13-acetate (PMA) was used as the NOX2 activator, and the production amount of ROS induced by PMA was measured for 60 minutes. […] diphenyleneiodonium (DPI), which is well known to inhibit NOX, was used as a positive control group to evaluate whether the NOX2 activity tester properly operates.

Molecule `COc1cc2c(cc1OC)CN(C(=O)c1cccc(N3C(=O)NC4CC3(C)Oc3ccccc34)c1)CC2` (racemic) [Compound 8b, 3-(3-(6,7-Dimethoxy-1,2,3,4-tetrahydroisoquinoline-2-carbonyl)phenyl)-2-methyl-5,6-dihydro-2H-2,6-methanobenzo[g][1,3,5]oxadiazocin-4(3H)-one] has an IC50 of over 10 µM.
Work on `CC12CC(NC(=O)N1c1cccc(C(=O)NCc3ccc(C(F)(F)F)cc3)c1)c1ccccc1O2` (racemic) [Compound 8c, 3-(2-Methyl-4-oxo-5,6-dihydro-2H-2,6-methanobenzo[g][1,3,5]oxadiazocin-3(4H)-yl)-N-(4-(trifluoromethyl)benzyl)benzamide] yielded an IC50 of over 10 µM.
Work on `CC12CC(NC(=O)N1c1cccc(C(=O)NCCc3ccc(C(F)(F)F)cc3)c1)c1ccccc1O2` (racemic) [Compound 8d, 3-(2-Methyl-4-oxo-5,6-dihydro-2H-2,6-methanobenzo[g][1,3,5]oxadiazocin-3(4H)-yl)-N-(4-(trifluoromethyl)phenethyl)benzamide] yielded an IC50 of 1 to 10 µM.
`CC12CC(NC(=O)N1c1cccc(C(=O)NC3Cc4ccccc4C3)c1)c1ccccc1O2` (racemic) [Compound 8e, N-(2,3-Dihydro-1H-inden-2-yl)-3-(2-methyl-4-oxo-5,6-dihydro-2H-2,6-methanobenzo[g][1,3,5]oxadiazocin-3(4H)-yl)benzamide] gave an IC50 of over 10 µM.
Work on `CC12CC(NC(=O)N1c1cccc(C(=O)NCc3cccnc3)c1)c1ccccc1O2` (racemic) [Compound 8f, 3-(2-Methyl-4-oxo-5,6-dihydro-2H-2,6-methanobenzo[g][1,3,5]oxadiazocin-3(4H)-yl)-N-(pyridin-3-ylmethyl)benzamide] yielded an IC50 of over 10 µM.
Work on `CC12CC(NC(=O)N1c1cccc(C(=O)NCc3ccco3)c1)c1ccccc1O2` (racemic) [Compound 8g, N-(Furan-2-ylmethyl)-3-(2-methyl-4-oxo-5,6-dihydro-2H-2,6-methanobenzo[g][1,3,5]oxadiazocin-3(4H)-yl)benzamide] yielded an IC50 of over 10 µM.
Work on `CC12CC(NC(=O)N1c1cccc(C(=O)NC3CC3)c1)c1ccccc1O2` (racemic) [Compound 8h, N-Cyclopropyl-3-(2-methyl-4-oxo-5,6-dihydro-2H-2,6-methanobenzo[g][1,3,5]oxadiazocin-3(4H)-yl)benzamide] yielded an IC50 of over 10 µM.
`CN(Cc1ccccc1)C(=O)c1cccc(N2C(=O)NC3CC2(C)Oc2ccccc23)c1` (racemic) [Compound 8i, N-Benzyl-N-methyl-3-(2-methyl-4-oxo-5,6-dihydro-2H-2,6-methanobenzo[g][1,3,5]oxadiazocin-3(4H)-yl)benzamide] gave an IC50 of over 10 µM.
For `CC12CC(NC(=O)N1c1cccc(C(=O)O)c1)c1ccccc1O2` (stereo not shown) [Compound 7, 3-(2-Methyl-4-oxo-5,6-dihydro-2H-2,6-methanobenzo[g][1,3,5]oxadiazocin-3(4H)-yl)benzoic acid], the IC50 was over 10 µM.
Molecule `CN1C(=O)N(c2cccc(C(=O)N3CCc4ccccc4C3)c2)C2(C)CC1c1ccccc1O2` (stereo not shown) [Compound 9, 2,5-Dimethyl-3-(3-(1,2,3,4-tetrahydroisoquinoline-2-carbonyl)phenyl)-5,6-dihydro-2H-2,6-methanobenzo[g][1,3,5]oxadiazocin-4(3H)-one] has an IC50 of over 10 µM.
With `C[C@@]12C[C@@H](NC(=O)N1c1cccc(C(=O)N3CCc4ccccc4C3)c1)c1ccccc1O2` [Compound 10a, (2R,6R)-2-Methyl-3-(3-(1,2,3,4-tetrahydroisoquinoline-2-carbonyl)phenyl)-5,6-dihydro-2H-2,6-methanobenzo[g][1,3,5]oxadiazocin-4(3H)-one] the IC50 was over 10 µM.
`C[C@@]12C[C@@H](NC(=O)N1c1cccc(C(=O)NCc3ccc(Br)cc3)c1)c1ccccc1O2` [Compound 10b, N-(4-Bromobenzyl)-3-((2R,6R)-2-methyl-4-oxo-5,6-dihydro-2H-2,6-methanobenzo[g][1,3,5]oxadiazocin-3(4H)-yl)benzamide] was tested, and the IC50 was over 10 µM.
With `C[C@]12C[C@H](NC(=O)N1c1cccc(C(=O)N3CCc4ccccc4C3)c1)c1ccccc1O2` [Compound 10c, (2S,6S)-2-Methyl-3-(3-(1,2,3,4-tetrahydroisoquinoline-2-carbonyl)phenyl)-5,6-dihydro-2H-2,6-methanobenzo[g][1,3,5]oxadiazocin-4(3H)-one] the IC50 was 1 to 10 µM.
Work on `C[C@]12C[C@H](NC(=O)N1c1cccc(C(=O)NCc3cc(Br)cc(Br)c3)c1)c1ccccc1O2` [Compound 10d, N-(3,5-Dibromobenzyl)-3-((2S,6S)-2-methyl-4-oxo-5,6-dihydro-2H-2,6-methanobenzo[g][1,3,5]oxadiazocin-3(4H)-yl)benzamide] yielded an IC50 of over 10 µM.
With `CC12CC(NC(=O)N1c1cccc(-c3cccc(C#N)c3)c1)c1ccccc1O2` (stereo not shown) [Compound 15a, 3′-(2-Methyl-4-oxo-5,6-dihydro-2H-2,6-methanobenzo[g][1,3,5]oxadiazocin-3(4H)-yl)-[1,1′-biphenyl]-3-carbonitrile] the IC50 was over 10 µM.
For `CC12CC(NC(=O)N1c1cccc(-c3ccco3)c1)c1ccccc1O2` (stereo not shown) [Compound 15b, 3-(3-(Furan-2-yl)phenyl)-2-methyl-5,6-dihydro-2H-2,6-methanobenzo[g][1,3,5]oxadiazocin-4(3H)-one], the IC50 was over 10 µM.
Molecule `CN1C(=O)N(c2cccc(-c3ccco3)c2)C2(C)CC1c1ccccc1O2` (stereo not shown) [Compound 16, 3-(3-(Furan-2-yl)phenyl)-2,5-dimethyl-5,6-dihydro-2H-2,6-methanobenzo[g][1,3,5]oxadiazocin-4(3H)-one] has an IC50 of over 10 µM.
With `CC12CC(NC(=O)N1c1cccc(CNc3cccc(C(F)(F)F)c3)c1)c1ccccc1O2` (stereo not shown) [Compound 19, 2-methyl-3-(3-(((3-(trifluoromethyl)phenyl)amino)methyl)phenyl)-5,6-dihydro-2H-2,6-methanobenzo[g][1,3,5]oxadiazocin-4(3H)-one] the IC50 was over 10 µM.
Work on `CC12CC(NC(=O)N1c1cccc(C(=O)N3CCc4ccccc4C3)c1)c1cc(Br)ccc1O2` (stereo not shown) [Compound 25a, 8-Bromo-2-methyl-3-(3-(1,2,3,4-tetrahydroisoquinoline-2-carbonyl)phenyl)-5,6-dihydro-2H-2,6-methanobenzo[g][1,3,5]oxadiazocin-4(3H)-one] yielded an IC50 of over 10 µM.
In the case of `CC12CC(NC(=O)N1c1cccc(C(=O)N3CCc4ccccc4C3)c1)c1cc(C(F)(F)F)ccc1O2` (stereo not shown) [Compound 25b, 2-Methyl-3-(3-(1,2,3,4-tetrahydroisoquinoline-2-carbonyl)phenyl)-8-(trifluoromethyl)-5,6-dihydro-2H-2,6-methanobenzo[g][1,3,5]oxadiazocin-4(3H)-one], the “NOX2 inhibitory ability, verbal rating” value is reported as “excellent inhibitory ability” and the IC50 is reported as over 10 µM.
For `CC12CC(NC(=O)N1c1cccc(C(=O)N3CCc4ccccc4C3)c1)c1cc(Cl)ccc1O2` (stereo not shown) [Compound 25c, 8-Chloro-2-methyl-3-(3-(1,2,3,4-tetrahydroisoquinoline-2-carbonyl)phenyl)-5,6-dihydro-2H-2,6-methanobenzo[g][1,3,5]oxadiazocin-4(3H)-one], the IC50 was 1 to 10 µM.
In the case of `CC12CC(NC(=O)N1c1cccc(C(=O)N3CCc4ccccc4C3)c1)c1cc(F)ccc1O2` (stereo not shown) [Compound 25d, 8-Fluoro-2-methyl-3-(3-(1,2,3,4-tetrahydroisoquinoline-2-carbonyl)phenyl)-5,6-dihydro-2H-2,6-methanobenzo[g][1,3,5]oxadiazocin-4(3H)-one], the IC50 is reported as 1 to 10 µM.
With `COc1ccc2c(c1)C1CC(C)(O2)N(c2cccc(C(=O)N3CCc4ccccc4C3)c2)C(=O)N1` (stereo not shown) [Compound 25e, 8-Methoxy-2-methyl-3-(3-(1,2,3,4-tetrahydroisoquinoline-2-carbonyl)phenyl)-5,6-dihydro-2H-2,6-methanobenzo[g][1,3,5]oxadiazocin-4(3H)-one] the “NOX2 inhibitory ability, verbal rating” value was “excellent inhibitory ability”.
`CC12CC(NC(=O)N1c1cccc(C(=O)N3CCc4ccccc4C3)c1)c1cccc(Br)c1O2` (stereo not shown) [Compound 25f, 10-Bromo-2-methyl-3-(3-(1,2,3,4-tetrahydroisoquinoline-2-carbonyl)phenyl)-5,6-dihydro-2H-2,6-methanobenzo[g][1,3,5]oxadiazocin-4(3H)-one] showed an IC50 of over 10 µM.
